According to article PMC11343938, “Micro-scale screening of genetically modified Fusarium fujikuroi strain extends the apicidin family” (Natural Products and Bioprospecting, 2024):
Where two headings read alike, the source gives them in different places. Square brackets hold non-standard residues; d marks the D form. Peptide text beside a SMILES is read from it. Trp(1-OMe) = COn1cc(C[C@H](N)C(=O)O)c2ccccc21; Asu = N[C@@H](CCCCCC(=O)O)C(=O)O; dPip = O=C(O)[C@H]1CCCCN1

What was measured:
P. falciparum NF54 = assay: In vitro antiparasitic activity against P. falciparum; format: cell-based; details: Plasmodium falciparum, P. falciparum NF54, intraerythrocytic forms, read-out: IC50 inhibition of P. falciparum growth
Experimental: (§1) Furthermore, the whole set of isolated compounds was tested in vitro against T. brucei rhodesiense (bloodstream trypomastigotes) and P. falciparum (intraerythrocytic forms). All assays were performed using validated protocols at the Swiss TPH [34].

HDAC1 = molecular target: T1, HDAC1 (Homo sapiens, UniProt Q13547); assay: In vitro HDAC inhibition assay (ZMAL substrate), HDAC1; format: biochemical
T1 construct: purchased BPS Bioscience 50051
T1 sequence (Q13547 whole entry): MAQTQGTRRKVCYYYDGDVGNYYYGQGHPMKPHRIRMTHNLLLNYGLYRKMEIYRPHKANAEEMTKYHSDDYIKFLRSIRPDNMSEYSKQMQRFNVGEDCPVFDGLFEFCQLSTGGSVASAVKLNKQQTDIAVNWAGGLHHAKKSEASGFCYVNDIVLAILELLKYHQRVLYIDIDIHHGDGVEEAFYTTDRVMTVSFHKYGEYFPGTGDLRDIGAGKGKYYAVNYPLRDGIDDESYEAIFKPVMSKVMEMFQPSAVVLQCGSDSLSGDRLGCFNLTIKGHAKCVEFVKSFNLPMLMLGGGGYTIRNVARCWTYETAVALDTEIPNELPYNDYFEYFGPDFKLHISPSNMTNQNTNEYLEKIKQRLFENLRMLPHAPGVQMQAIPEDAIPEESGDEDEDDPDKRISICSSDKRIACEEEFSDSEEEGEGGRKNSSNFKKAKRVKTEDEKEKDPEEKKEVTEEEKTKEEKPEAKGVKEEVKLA
Experimental: (§2) In vitro inhibitory activity against HDAC1-3 and 6 was determined using our previously published assay protocol. […] Next, the total assay volume (50 µL, max. 1% DMSO) was incubated at 37 °C for 90 min. Subsequently, 50 µL trypsin solution (0.4 mg/mL trypsin in buffer: 50 mM Tris- HCl, pH 8.0, 100 mM NaCl) was added, followed by additional 30 min of incubation at 37 °C. Fluorescence (excitation: 355 nm, emission: 460 nm) was measured using a FLUOstar OPTIMA microplate reader (BMG LABTECH). The IC50 values were determined by generating normalized dose–response curves using the build-in "log(inhibitor) vs. response (three parameters)" equation provided by GraphPad Prism (GraphPad Prism 9.0, San Diego, USA). Compounds were tested in duplicates, reported mean IC50 values, including standard deviation, are calculated from at least two independent experiments.

HDAC2 = molecular target: T2, HDAC2 (Homo sapiens, UniProt Q92769); assay: biochemical; details: mean ± SD of at least two independent experiments
T2 construct: purchased BPS Bioscience 50052
T2 sequence (Q92769 whole entry): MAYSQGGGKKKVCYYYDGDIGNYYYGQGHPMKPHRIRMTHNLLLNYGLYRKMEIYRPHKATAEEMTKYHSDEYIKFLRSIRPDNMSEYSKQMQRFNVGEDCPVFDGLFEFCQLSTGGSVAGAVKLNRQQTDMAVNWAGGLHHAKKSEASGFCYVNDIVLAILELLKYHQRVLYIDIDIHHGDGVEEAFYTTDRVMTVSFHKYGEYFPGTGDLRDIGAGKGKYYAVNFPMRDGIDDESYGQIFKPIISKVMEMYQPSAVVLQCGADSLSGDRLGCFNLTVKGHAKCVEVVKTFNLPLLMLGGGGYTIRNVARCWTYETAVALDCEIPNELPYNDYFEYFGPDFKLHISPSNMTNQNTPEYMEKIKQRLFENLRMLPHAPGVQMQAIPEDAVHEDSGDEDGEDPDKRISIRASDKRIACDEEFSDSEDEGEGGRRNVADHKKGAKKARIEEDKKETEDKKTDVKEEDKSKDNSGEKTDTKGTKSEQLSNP
Experimental: as §2, with “USA).” for “USA). Compounds were tested in duplicates, reported mean IC50 values, including standard deviation, are calculated from at least two independent experiments.”

HDAC3/NcoR2 = molecular target: T3, HDAC3/NcoR2 (Homo sapiens, UniProt O15379); assay: In vitro HDAC inhibition assay (ZMAL substrate), HDAC3; format: biochemical; details: mean ± SD of at least two independent experiments
T3 construct: purchased BPS Bioscience 50003
T3 sequence (O15379 whole entry): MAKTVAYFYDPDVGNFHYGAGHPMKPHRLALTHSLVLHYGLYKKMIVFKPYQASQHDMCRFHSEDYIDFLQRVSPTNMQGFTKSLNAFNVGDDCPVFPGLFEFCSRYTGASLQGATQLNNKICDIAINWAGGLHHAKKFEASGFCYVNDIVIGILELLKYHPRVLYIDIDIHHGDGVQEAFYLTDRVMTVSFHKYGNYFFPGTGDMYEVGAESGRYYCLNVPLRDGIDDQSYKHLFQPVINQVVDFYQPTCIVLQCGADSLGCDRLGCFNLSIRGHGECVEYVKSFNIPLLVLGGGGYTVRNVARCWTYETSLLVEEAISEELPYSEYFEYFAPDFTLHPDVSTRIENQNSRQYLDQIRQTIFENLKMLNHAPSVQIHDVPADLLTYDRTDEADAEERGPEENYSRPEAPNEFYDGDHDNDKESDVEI
T3 sequence (Q9Y618 395-489 partner limits assumed): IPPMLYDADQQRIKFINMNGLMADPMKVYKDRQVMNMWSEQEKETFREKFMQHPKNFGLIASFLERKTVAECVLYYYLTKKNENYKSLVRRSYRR
Experimental: as §2

HDAC6 = molecular target: T4, HDAC6 (Homo sapiens, UniProt Q9UBN7); assay: In vitro HDAC inhibition assay (ZMAL substrate), HDAC6; format: biochemical
T4 construct: purchased BPS Bioscience 50006
T4 sequence (Q9UBN7 1-1215): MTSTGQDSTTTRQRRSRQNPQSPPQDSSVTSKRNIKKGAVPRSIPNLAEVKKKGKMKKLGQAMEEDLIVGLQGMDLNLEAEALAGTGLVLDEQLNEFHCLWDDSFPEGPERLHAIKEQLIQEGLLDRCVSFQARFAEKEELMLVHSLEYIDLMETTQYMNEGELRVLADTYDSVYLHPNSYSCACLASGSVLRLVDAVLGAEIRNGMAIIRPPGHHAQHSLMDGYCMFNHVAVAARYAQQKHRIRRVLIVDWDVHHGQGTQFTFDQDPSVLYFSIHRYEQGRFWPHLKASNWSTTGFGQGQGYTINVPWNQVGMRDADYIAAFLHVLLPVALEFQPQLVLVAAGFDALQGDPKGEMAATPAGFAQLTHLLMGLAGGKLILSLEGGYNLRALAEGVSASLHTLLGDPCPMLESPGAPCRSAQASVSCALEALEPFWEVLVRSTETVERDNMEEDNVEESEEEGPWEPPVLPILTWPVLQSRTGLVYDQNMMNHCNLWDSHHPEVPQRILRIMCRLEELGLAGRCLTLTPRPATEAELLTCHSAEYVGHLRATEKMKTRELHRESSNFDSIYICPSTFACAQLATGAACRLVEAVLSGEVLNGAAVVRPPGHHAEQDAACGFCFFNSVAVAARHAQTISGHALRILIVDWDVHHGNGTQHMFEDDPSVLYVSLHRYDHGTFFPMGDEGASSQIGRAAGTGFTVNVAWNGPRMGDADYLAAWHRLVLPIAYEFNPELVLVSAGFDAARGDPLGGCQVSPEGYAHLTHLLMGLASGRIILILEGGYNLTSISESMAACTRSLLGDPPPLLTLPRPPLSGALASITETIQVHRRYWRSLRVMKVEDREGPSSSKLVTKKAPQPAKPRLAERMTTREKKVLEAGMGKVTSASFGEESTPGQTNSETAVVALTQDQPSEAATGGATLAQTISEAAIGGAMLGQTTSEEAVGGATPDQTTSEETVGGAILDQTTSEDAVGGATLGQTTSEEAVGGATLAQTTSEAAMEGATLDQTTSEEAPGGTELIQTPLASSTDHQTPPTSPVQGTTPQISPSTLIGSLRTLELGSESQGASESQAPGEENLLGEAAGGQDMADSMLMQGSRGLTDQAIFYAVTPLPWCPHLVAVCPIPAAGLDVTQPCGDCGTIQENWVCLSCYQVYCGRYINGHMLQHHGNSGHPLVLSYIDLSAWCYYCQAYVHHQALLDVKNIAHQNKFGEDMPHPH
Experimental: as §2

HepG2 = details: human liver carcinoma cell line HepG2; cited from earlier work
Plasmodium falciparum = details: cited from earlier work
in vitro [1] = details: rat
HepG2 (HB-8065) = details: resazurin assay, 24 h incubation, 0.01-100 µM tested
A549 (CCL-185) = details: resazurin assay, 24 h incubation, 0.01-100 µM tested
[2] = test system: Trypanosoma brucei rhodesiense STIB 900; assay: In vitro antiparasitic activity against T. brucei rhodesiense; format: cell-based; details: bloodstream trypomastigotes
Experimental: as §1

in vitro [3] = details: human
[4] = mean ± SD of at least two independent experiments, [b] < 30% inhibition at the stated concentration, read-out: IC50 HDAC1
[5] = mean ± SD of at least two independent experiments, [b] < 30% inhibition at the stated concentration, read-out: IC50 HDAC6

`COn1cc(C[C@@H]2NC(=O)[C@H](CCCCCC(=O)O)NC(=O)[C@H]3CCCCN3C(=O)[C@H](Cc3ccccc3)NC2=O)c2ccccc21` [Apicidin F (1), 6-[(3S,6S,9S,12R)-3-benzyl-6-[(1-methoxyindol-3-yl)methyl]-2,5,8,11-tetraoxo-1,4,7,10-tetrazabicyclo[10.4.0]hexadecane-9-yl]hexanoic acid] (cyclo([Asu][Trp(1-OMe)]F[dPip])) gave an IC50 (P. falciparum NF54) of 510 nM, an IC50 (HDAC1; [4]) of 102 ± 4 nM and an IC50 (HDAC2) of 164 ± 17 nM. The IC50 (HDAC3/NcoR2) was 202 ± 26 nM, the IC50 (HDAC6; [5]) was 6380 ± 1570 nM and the IC50 (HepG2) was 110000 nM. For the same compound, the IC50 (Plasmodium falciparum; read-out: IC50 antiparasitic activity against Plasmodium falciparum) was 670 nM and the IC50 (in vitro [1]) was 63700 nM.

With `COn1cc(C[C@@H]2NC(=O)[C@H](CCCCCC(=O)O)NC(=O)[C@H]3CCCN3C(=O)[C@H](Cc3ccccc3)NC2=O)c2ccccc21` [Apicidin J (2), 6-[(3S,6S,9S,12R)-3-benzyl-6-[(1-methoxyindol-3-yl)methyl]-2,5,8,11-tetraoxo-1,4,7,10-tetrazabicyclo[10.3.0]pentadecane-9-yl]hexanoate] (cyclo([Asu][Trp(1-OMe)]F[dP])) the IC50 (P. falciparum NF54) was 1100 nM, the IC50 (HDAC1; [4]) was 342 ± 18 nM and the IC50 (HDAC2) was 633 ± 28 nM. The IC50 (HDAC3/NcoR2) was 754 ± 112 nM, the IC50 (HDAC6; [5]) was 9870 ± 1400 nM and the “IC50 cytotoxicity HepG2” value (HepG2 (HB-8065)) was “no IC50 could be calculated”. For the same compound, the “IC50 cytotoxicity A549” value (A549 (CCL-185)) was “no IC50 could be calculated” and the IC50 (in vitro [1]) was 46500 nM.

For `COn1cc(C[C@@H]2NC(=O)[C@H](CCCCCCO)NC(=O)[C@H]3CCCCN3C(=O)[C@H](Cc3ccccc3)NC2=O)c2ccccc21` [Apicidin K (3), (3S,6S,9S,12R)-3-benzyl-9-(6-hydroxyhexyl)-6-[(1-methoxyindol-3-yl)methyl]-1,4,7,10-tetrazabicyclo[10.4.0]hexadecane-2,5,8,11-tetrone], the IC50 (P. falciparum NF54) was 1100 nM, the IC50 (HDAC1; [4]) was > 3330 nM and the IC50 (HDAC6; [5]) was > 10000 nM. It also gave an IC50 (in vitro [1]) of 7200 nM.

In the case of `COn1cc(C[C@@H]2NC(=O)[C@H](CCCCCCO)NC(=O)[C@H]3CCCN3C(=O)[C@H](Cc3ccccc3)NC2=O)c2ccccc21` [Apicidin L (4), (3S,6S,9S,14aR)-9-benzyl-3-(6-hydroxyhexyl)-6-[(1-methoxy-1H-indol-3-yl)methyl]decahydropyrrolo[1,2-a][1,4,7,10]tetraazacyclododecine-1,4,7,10-tetraone], the “Activity against Trypanosoma brucei rhodesiense STIB 900” value [2] is reported as “no effect”, the IC50 (P. falciparum NF54) is reported as 2100 nM and the IC50 (HDAC1) is reported as > 10000 nM. For the same compound, the IC50 (HDAC6) was > 10000 nM, the “IC50 cytotoxicity HepG2” value (HepG2 (HB-8065)) was “no IC50 could be calculated” and the “IC50 cytotoxicity A549” value (A549 (CCL-185)) was “no IC50 could be calculated”. It also gave an IC50 (in vitro [1]) of 20000 nM.

In the case of `CCC(=O)CCCCC[C@@H]1NC(=O)[C@H]2CCCCN2C(=O)[C@H]([C@@H](C)CC)NC(=O)[C@H](Cc2cn(OC)c3ccccc23)NC1=O` [apicidin (5), apicidin], the IC50 (HepG2) is listed as 1300 nM, the IC50 (Plasmodium falciparum; read-out: IC50 in the P. falciparum assay) is listed as 200 nM and the IC50 (in vitro [3]) is listed as 2700 nM.
